The values below come from ChEMBL document CHEMBL1201862, “PubChem BioAssay data set” (2004).

Active and inactive are the calls of the source.

The target in test [1] is T1, Apoptotic protease-activating factor 1 (Homo sapiens, UniProt O14727).
T1 sequence (O14727 whole entry): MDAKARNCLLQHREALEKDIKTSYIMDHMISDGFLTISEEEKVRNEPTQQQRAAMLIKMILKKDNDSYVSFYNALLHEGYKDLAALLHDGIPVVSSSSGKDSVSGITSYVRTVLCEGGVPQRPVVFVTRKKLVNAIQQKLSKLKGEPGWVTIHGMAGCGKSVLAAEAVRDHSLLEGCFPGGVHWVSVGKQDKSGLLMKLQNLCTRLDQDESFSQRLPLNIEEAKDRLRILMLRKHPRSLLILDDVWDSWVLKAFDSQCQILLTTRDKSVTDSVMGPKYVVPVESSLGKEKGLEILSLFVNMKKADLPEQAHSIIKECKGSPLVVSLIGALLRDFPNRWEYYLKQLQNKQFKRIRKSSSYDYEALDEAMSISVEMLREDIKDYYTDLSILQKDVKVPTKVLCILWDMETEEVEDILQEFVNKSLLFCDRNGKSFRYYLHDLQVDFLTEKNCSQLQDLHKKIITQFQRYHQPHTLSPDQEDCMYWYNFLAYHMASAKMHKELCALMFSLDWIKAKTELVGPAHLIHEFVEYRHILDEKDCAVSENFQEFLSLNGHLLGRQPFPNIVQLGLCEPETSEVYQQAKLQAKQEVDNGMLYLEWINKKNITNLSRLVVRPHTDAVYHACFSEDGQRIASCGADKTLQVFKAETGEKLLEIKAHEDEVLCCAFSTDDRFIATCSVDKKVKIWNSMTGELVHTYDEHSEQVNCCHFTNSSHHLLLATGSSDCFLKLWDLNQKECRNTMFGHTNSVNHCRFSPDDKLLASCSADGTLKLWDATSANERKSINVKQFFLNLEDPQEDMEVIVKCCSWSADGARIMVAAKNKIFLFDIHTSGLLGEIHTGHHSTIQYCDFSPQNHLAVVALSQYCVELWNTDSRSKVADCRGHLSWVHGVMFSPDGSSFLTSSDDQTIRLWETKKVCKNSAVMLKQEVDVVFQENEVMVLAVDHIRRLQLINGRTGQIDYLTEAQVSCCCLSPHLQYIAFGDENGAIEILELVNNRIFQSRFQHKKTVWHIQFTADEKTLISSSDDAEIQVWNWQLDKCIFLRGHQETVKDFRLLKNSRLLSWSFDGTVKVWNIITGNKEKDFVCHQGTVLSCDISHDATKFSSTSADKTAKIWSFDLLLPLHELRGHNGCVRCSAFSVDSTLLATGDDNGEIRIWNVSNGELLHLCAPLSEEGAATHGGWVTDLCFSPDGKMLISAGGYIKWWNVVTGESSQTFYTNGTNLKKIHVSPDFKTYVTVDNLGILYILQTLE
Format: functional.

The target of test [2] is T2, Ubiquitin-conjugating enzyme E2 N (Homo sapiens, UniProt P61088).
T2 sequence (P61088 whole entry): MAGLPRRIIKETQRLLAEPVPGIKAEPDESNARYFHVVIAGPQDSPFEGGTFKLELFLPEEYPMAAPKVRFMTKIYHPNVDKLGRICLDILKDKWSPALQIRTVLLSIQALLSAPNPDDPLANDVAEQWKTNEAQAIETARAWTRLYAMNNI
Format: functional.

The target of test [3] is T3, Small ubiquitin-related modifier 1 (Homo sapiens, UniProt P63165). As to the kind of experiment: inhibitors of SUMO1 peptide binding, dose response, biochemical, fluorescence polarization, uHTS hits (AID 624382). Type of test: functional. To be noted: read-out: IC50_Mean.
The subject of test [4] is Streptococcus sp. 'group A'. The test is described as follows: growth inhibition of control SK(-) GAS strain, dose response, counter-screen for streptokinase expression inhibitor project, luminescence, kanamycin, BacTiterGlo, confirmation (AID 1900). Format: functional, organism-based.
A further test concerns the target T4, Caspase-6 (Homo sapiens, UniProt P55212).
T4 sequence (P55212 whole entry): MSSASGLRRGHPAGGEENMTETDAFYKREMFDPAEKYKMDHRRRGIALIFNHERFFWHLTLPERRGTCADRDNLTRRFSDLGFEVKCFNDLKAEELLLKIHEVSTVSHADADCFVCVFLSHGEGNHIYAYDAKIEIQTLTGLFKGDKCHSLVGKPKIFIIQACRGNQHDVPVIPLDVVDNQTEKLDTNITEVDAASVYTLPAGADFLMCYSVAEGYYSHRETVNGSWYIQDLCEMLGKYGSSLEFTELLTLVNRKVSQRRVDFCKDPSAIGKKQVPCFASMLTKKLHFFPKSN
The test is described as follows: human caspase-6 inhibitors, dose response, biochemical, VEID-R110 fluorescence, cherry-pick (AID 720632).

The target of the next test is T5, Bcl-2-related protein A1 (Mus musculus, UniProt Q07440).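 Also: confirmatory dose–response counterscreen on Bfl-1, used to check hits from a UBC13 polyubiquitin inhibitor campaign.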
T5 sequence (Q07440 whole entry): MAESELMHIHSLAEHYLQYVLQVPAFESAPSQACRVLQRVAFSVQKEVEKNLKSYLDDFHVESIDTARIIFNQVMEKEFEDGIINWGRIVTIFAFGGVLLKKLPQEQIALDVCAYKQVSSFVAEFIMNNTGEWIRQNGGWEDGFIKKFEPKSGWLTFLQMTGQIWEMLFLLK
Type of test: functional.

Test [5] is described as follows: C. albicans growth with fluconazole, confirmation, fluorescence, retest (AID 2467). Type of test: functional, cell-based.
For test [6], the target named is 26S proteasome non-ATPase regulatory subunit 14 (Homo sapiens, UniProt O00487). The test is described as follows: inhibition of proteasome subunit RPN11 – biochemical, fluorescence polarization, uHTS hits, confirmation (AID 602368). Type of test: functional.
A short description of test [7]: HeLa cell cytotoxicity, dose response, cytotoxicity control for MgcRacGAP inhibitor project (AID 624300). Format: functional.
Test [8] in a line: microbe, parasite or virus in culture. Format: functional. To be noted: Mycobacterium tuberculosis.
The nature of test [9]: inhibitors of SNCA 5'UTR-driven reporter translation, confirmation, H4 neuroglioma cells, luminescence (AID 1988). Type of test: functional, cell-based.
Test [10] deals with T3, Small ubiquitin-related modifier 1. The test is described as follows: inhibitors of SUMO1 partner interactions, dose response, biochemical, FRET (AID 624383). Format: functional. The settings on record: read-out: IC50_Mean.
The next test addresses Prothrombin (Bos taurus, UniProt P00735). As to the kind of experiment: thrombin inhibition, dose response, biochemical, fluorescence polarization, uHTS hits (AID 602369). Format: functional. Background: In fluorescence polarisation assays a small probe gives low polarisation when free and higher when bound to something large.

T3 sequence (P63165 whole entry): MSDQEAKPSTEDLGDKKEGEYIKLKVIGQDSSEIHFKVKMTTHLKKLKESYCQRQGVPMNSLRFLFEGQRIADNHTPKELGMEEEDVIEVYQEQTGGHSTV
Chain of 26S proteasome non-ATPase regulatory subunit 14 (O00487 whole entry): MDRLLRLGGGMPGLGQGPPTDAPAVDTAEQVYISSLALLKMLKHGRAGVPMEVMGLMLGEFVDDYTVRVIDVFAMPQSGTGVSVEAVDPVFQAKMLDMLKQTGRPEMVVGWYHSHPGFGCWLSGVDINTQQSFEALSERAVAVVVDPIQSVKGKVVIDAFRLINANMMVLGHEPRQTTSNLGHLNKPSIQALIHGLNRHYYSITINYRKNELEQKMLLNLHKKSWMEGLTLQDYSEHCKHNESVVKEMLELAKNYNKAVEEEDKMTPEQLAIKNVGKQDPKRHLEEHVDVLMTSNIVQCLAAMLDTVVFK

Regarding `N=C(N)N/N=C/c1ccc(N(c2ccccc2)c2ccccc2)cc1`, the IC50 in test [1] was 28.2 µM (active); in test [2], 1.11 µM (active); in test [3] it was > 66.6 µM (inactive); on Bcl-2-related protein A1, 3.85 µM (active); in test [6], 18 µM (active); in test [10] it was 8.67 µM (active). Besides, the IC50 on Prothrombin is 41.8 µM (active). The results for the EC50 in test [4], in test [5] and in [9] were 2.39 µM (active), 5.12 µM (active) and 10.4 µM (active), respectively. For the same compound, at Caspase-6, the half-maximal activity concentration (AC50) is 10.1 µM (active). For the same compound, the CC50 was 17.1 µM (active) in test [7] and 6.42 µM (active) in [8].

Usually EC50 stands for the concentration that produces a half-maximal response. A word on the AC50: it is the midpoint of the concentration-response curve, whichever way the signal moves.
